The test system of assay [1] is writhing response induced by bradykinin in mice. Briefly: Bradykinin-induced Writhing in Mice. Type of assay: in vivo, mice (male CD-1). As to the method:
Protocol for Bradykinin-induced Writhing in Mice
The purpose of this assay is to determine the ability of test drugs to inhibit the writhing response induced by bradykinin in mice. This test is a primary in vivo screen for bradykinin antagonist analgesics.
Groups of 10 mice each (male CD-1 mice (14-19 g) from Charles River, Kingston, NY, fasted overnight prior to experiment, but having free access to water) are used. Each mouse receives an intraperitoneal injection of 1 mg/kg PGE2 (0.1 mL/10 g body weight) followed 20 minutes later by an i.p. injection of bradykinin 0.5 mg/kg. The number of writhes per mouse is determined for 2 minutes after bradykinin injection. For a primary screen, drugs are administered orally at 20 mg/kg 1 hour prior to the bradykinin.
The percent inhibition of writhing obtained is calculated as follows: [formula]
Several logarithmically spaced doses are tested and the ED50 (dose which inhibits the writhing response by 50%) is determined by regression methods with inverse prediction.
The test results are reported in the TABLE below under the heading BK Induced Writhing in Mice.
In general terms: An intraperitoneal irritant provokes the stretching counted in writhing tests.

Assay [2] has as its target T1, BK2 receptor sites in guinea pig ileum (Cavia porcellus, UniProt O70526).
T1 construct: The distal portion of the ileum is removed and placed in ice cold homogenization buffer; from tissue; host or cells: distal ileum of adult male Hartley guinea pigs (animals from Charles River), washed membrane homogenate
T1 sequence (O70526 1-372): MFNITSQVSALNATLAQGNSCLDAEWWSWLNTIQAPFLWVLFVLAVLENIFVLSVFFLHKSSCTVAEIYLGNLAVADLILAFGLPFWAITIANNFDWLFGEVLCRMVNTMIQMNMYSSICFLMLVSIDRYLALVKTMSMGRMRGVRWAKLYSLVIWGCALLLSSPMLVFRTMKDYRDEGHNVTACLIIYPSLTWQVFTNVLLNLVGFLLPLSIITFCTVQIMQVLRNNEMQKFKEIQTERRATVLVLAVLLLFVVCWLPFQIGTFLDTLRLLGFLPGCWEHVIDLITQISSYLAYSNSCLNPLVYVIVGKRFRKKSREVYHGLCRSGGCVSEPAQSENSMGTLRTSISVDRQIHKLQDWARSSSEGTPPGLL
Briefly: Bradykinin Receptor Binding Assay (3H-BK Binding, G. P. Ileum). Also noted: species or system guinea pig (Hartley strain). The note with it: 80 pM 3H-BK. As to the method: Protocol for Bradykinin Receptor Binding Assay
The purpose of this assay is to identify compounds which compete specifically with tritiated bradykinin (^3 H--BK) for BK2 receptor sites in guinea pig ileum.
The guinea pig (adult male Hartley strain, 350-500 g, Charles River) is euthanized by stunning followed by decapitation. The distal portion of the ileum is removed and placed in ice cold homogenization buffer (25 mM N-[tris(hydroxymethyl)methyl]-2-aminoethanesulfonic acid (TES), 1 mM 1,10-phenanthroline, adjusted to pH 6.8 with NH4 OH). The contents of the ileal lumen are rinsed out with cold homogenization buffer. The tissue is cut into small pieces and homogenized in 20 volumes of homogenization buffer.
The homogenate is filtered through a surgical gauze sponge and centrifuged at 50,000×g for 20 minutes at 4° C. The supernatant fluid is discarded and the homogenization and centrifugation procedure is repeated. After discarding the supernatant fluid, the final pellet is resuspended in 40 volumes of assay buffer (25 mM TES, pH=6.8, 1 mM 1,10-phenanthroline, 1 mM (2RS, 3RS)-1,4-dimercapto-2,3-butanediol (Cleland's reagent), 2 μM captopril, 140 μg/mL bacitracin and 0.1% bovine serum albumin (BSA)). The homogenate is filtered once more through a surgical gauze sponge and kept on ice until use.
The assay is performed using only polypropylene pipet tips and polypropylene test tubes. Each tube receives 100 μL of 800 pM ^3 H--BK, 100 μL of the test compound solution or vehicle (TES assay buffer), and 100 μL of 25 mg/mL tissue homogenate in a total volume of 1 mL. The final concentration of ^3 H--BK is 80 pM. The final tissue concentration is 2.5 mg/mL. Compounds are screened at 100 μM or 10 μM. Nonspecific binding is determined in the presence of 1 μM unlabeled bradykinin. All determinations are made in triplicate. Three 100 μL aliquots of the 800 pM ^3 H--BK working solution are added directly to scintillation vials to determine the total added radioactivity.
The tubes are incubated for 90 minutes at 25° C. while being gently agitated on an orbital shaker. Bound ligand is separated from free ligand, using Whatman GF/B glass fiber filters (pretreated with 0.1% aqueous polyethyleneimine made neutral with HCl). Assay tubes and glass fiber filters are rinsed three times with 3 mL of cold physiological saline.
The filter discs are transferred to 20 mL scintillation vials. Ten mL of aqueous sample LSC cocktail (Aquassure, New England Nuclear) is added to each vial. After capping, the vials are agitated for 5 minutes on an orbital shaker. The samples are counted for ten minutes in a refrigerated liquid scintillation counter.
The following values are obtained:
Bns : Nonspecific binding
Bx : Total binding in the presence of the test compound
C: Control specific binding C=Bt -Bns
D: Specific binding in the presence of the test compound D=Bx -Bns
Percent of Control: D/C×100
Percent Inhibition: (1-D/C)×100
After calculation of Percent of Control for each dilution, the values are analyzed and the IC50 with its 95% confidence limits is determined on a Hewlett Packard 9816 computer using the program "PS-NONLIN" (generalizednon-linear regression with inverse prediction and graphics).
The test results are reported in the TABLE below under the heading 3H--BK Binding, G. P. Ileum.

Assay [3] concerns bradykinin-induced hyperalgesia (pain threshold) in rats. The assay is described as follows: Bradykinin-induced Hyperalgesia in Rats. Type of assay: in vivo, rats (female Sprague Dawley). To be noted: 100 mg/kg p.o. As to the method: Protocol for Bradykinin-induced Hyperalgesia in Rats
The purpose of this assay is to evaluate analgesic activity of bradykinin antagonists in an inflammatory pain model in rats.
Animals (female Sprague Dawley rats (Charles River, Kingston, NY) 80-115 gms) are fasted overnight, with water given ad lib, if the compounds are to be administered orally. Ten rats are used per test group and six per normal group.
Test compounds are suspended in 0.5% Tween 80 in distilled water, and are administered orally 1 hour (or i.p. 5 minutes) prior to the injection of bradykinin.
The animals are randomized prior to drug administration in order to make the study blind. Bradykinin is injected, as the phlogistic agent, into the subplantar region of the right hindpaw of the rats, in a 0.01 mg/0.1 mL saline solution. The pain threshold is measured 1 minute later using a modification of the Randall-Selitto method, [Randall, et al., Archives International Pharmacodynamics, VIII N4, p 409-419 (1957)].
Animals are placed in a horizontal position with a hindpaw hanging down on the apparatus. The teflon point is placed on the foot pad and a steady pressure is applied, using a foot pedal. The endpoint is determined when the rat emits a squeak or forcefully attempts to remove its paw from the apparatus. […]
Drug effects are expressed as a percent change in pain threshold from bradykinin control values. […]

On to `O=C(NC1CCN(Cc2ccccc2)CC1)c1ccc(OCc2ccnc3ccccc23)cc1` [Example 1, N-[1-(Phenylmethyl)-4-piperidinyl]-4-(4-quinolinylmethoxy)benzamide], for which the “BK Induced Writhing in Mice, % inhibition” value in assay [1] (30 mg/kg i.p.) is 40.0%. In addition, the “BK Induced Writhing in Mice, % inhibition” value in assay [1] (300 mg/kg p.o.) came to 52.0%. In addition, in assay [2], the IC50 (usually the concentration that gives 50% inhibition) was found to be 9.1 µM and at 100 µM the inhibition was 98.8%. The “increase of BK induced pain threshold in rats” value in assay [3] is 44.8%.
Consider `O=C(NC1CCN(Cc2ccccc2)CC1)c1ccc(OCc2ccc3ccccc3n2)cc1` [Example 2, N-[1-(Phenylmethyl)-4-piperidinyl]-4-(2-quinolinylmethoxy)benzamide], for which the “BK Induced Writhing in Mice, % inhibition” value in assay [1] (30 mg/kg i.p.) worked out at 40.0%; in assay [1] (100 mg/kg p.o.), 32.0%; in assay [1] (200 mg/kg p.o.), 22.5%. Further, in assay [2], the IC50 turned out to be 33.6 µM. In assay [2], the inhibition (usually the share of the control response that was lost under treatment) at 100 µM stood at 93.8%.
The compound `CCCCN1CCC(NC(=O)c2ccc(OCc3ccnc4ccccc34)cc2)CC1` [Example 3, N-(1-Butyl-4-piperidinyl)-4-(4-quinolinylmethoxy)benzamide] gave an inhibition at 10 µM in assay [2] of 15.2%.
With `CCCCN1CCC(NC(=O)c2ccc(OCc3ccc4ccccc4n3)cc2)CC1` [Example 4, N-(1-Butyl-4-piperidinyl)-4-(2-quinolinylmethoxy)benzamide], 10 µM produced 10.4% inhibition in assay [2].
In the case of `O=C(NC1CCN(Cc2ccccc2)CC1)c1cccc(OCc2ccnc3ccccc23)c1` [Example 5, N-[1-(Phenylmethyl)-4-piperidinyl]-3-(4-quinolinylmethoxy)benzamide], the “BK Induced Writhing in Mice, % inhibition” value was 31.0% in assay [1] (30 mg/kg i.p.) and 22.0% in assay [1] (200 mg/kg p.o.). The IC50 in assay [2] is 7.3 µM. The inhibition at 10 µM in assay [2] was found to be 63.8%.
Consider `O=C(NC1CCN(Cc2ccccc2)CC1)c1ccccc1OCc1ccnc2ccccc12` [Example 6, N-[1-(Phenylmethyl)-4-piperidinyl]-2-(4-quinolinylmethoxy)benzamide], for which the inhibition at 10 µM in assay [2] was found to be 17.3%.
`O=C(NC1CCN(Cc2ccccc2)CC1)c1cccc(OCc2ccc3ccccc3n2)c1` [Example 7, N-[1-(Phenylmethyl)-4-piperidinyl]-3-(2-quinolinylmethoxy)benzamide]: in assay [2], the inhibition at 10 µM came to 43.2%.
Consider `O=C(NC1CCN(Cc2ccccc2)CC1)c1ccccc1OCc1ccc2ccccc2n1` [Example 8, N-[1-(Phenylmethyl)-4-piperidinyl]-2-(2-quinolinylmethoxy)benzamide], for which the inhibition at 10 µM in assay [2] came to 8.4%.
In the case of `CCCCN1CCC(NC(=O)c2cccc(OCc3ccnc4ccccc34)c2)CC1` [Example 9, N-(1-Butyl-4-piperidinyl)-3-(4-quinolinylmethoxy)benzamide], in assay [2], testing at 10 µM gave an inhibition of 21.4%.
Compound `O=C(NC1CCN(Cc2ccccc2)CC1)c1ccc(OCc2cccc3ccccc23)cc1` [Example 10, N-[1-(Phenylmethyl)-4-piperidinyl]-4-(1-naphthalenylmethoxy)benzamide] displayed an inhibition at 10 µM in assay [2] of 8.6%.
The compound `CCCCN1CCC(NC(=O)c2ccc(OCc3cccc4ccccc34)cc2)CC1` [Example 11, N-(1-Butyl-4-piperidinyl)-4-(1-naphthalenylmethoxy)benzamide] displayed an inhibition at 10 µM in assay [2] of 11.1%.
As to `O=C(NC1CCN(Cc2ccccc2)CC1)c1ccc(/C=C/c2ccnc3ccccc23)cc1` [Example 12, (E)-N-[1-(Phenylmethyl)-4-piperidinyl]-4-[2-(4-quinolinyl)ethenyl]benzamide], in assay [1] (30 mg/kg i.p.), the “BK Induced Writhing in Mice, % inhibition” value worked out at 10.0%. Also, at 10 µM the inhibition in assay [2] was 78.7%.
For `O=C(NC1CCN(Cc2ccccc2)CC1)c1ccc(/C=C\c2ccnc3ccccc23)cc1` [Example 13, (Z)-N-[1-(Phenylmethyl)-4-piperidinyl]-4-[2-(4-quinolinyl)ethenyl]benzamide], in assay [2], the inhibition at 10 µM was determined as 35.8%.
Same read-out and setting: the figure for `O=C(NC1CCN(Cc2ccccc2)CC1)c1ccc(OCc2cc[n+]([O-])c3ccccc23)cc1` [Example 14, N-[1-(Phenylmethyl)-4-piperidinyl]-4-(4-quinolinylmethoxy)benzamide N-Oxide] is 30.2%.
The same measure, in the same setting: the figure for `CCN(CC)C(=O)c1ccc(CN2CCC(NC(=O)c3ccc(OCc4ccnc5ccccc45)cc3)CC2)cc1` [Example 15, N-[1-[[4-[(Diethylamino)carbonyl]phenyl]methyl]-4-piperidinyl]-4-(4-quinolinylmethoxy)benzamide] is 30.2%; for `c1ccc(CN2CCC(NCc3ccc(OCc4ccnc5ccccc45)cc3)CC2)cc1` [Example 16, 1-(Phenylmethyl)-N-[[4-(4-quinolinylmethoxy)phenyl]methyl]-4-piperidinamine] it is 27.4%.
Same read-out and setting: to `CCCC(=O)N(Cc1ccc(OCc2ccnc3ccccc23)cc1)C1CCN(Cc2ccccc2)CC1` [Example 17, N-[1-(Phenylmethyl)-4-piperidinyl]-N-[[4-(4-quinolinylmethoxy)phenyl]methyl]butanamide] belongs 25.3%; to `O=C(NC1CCN(Cc2ccccc2)CC1)c1ccc(NCc2ccnc3ccccc23)cc1` [Example 18, N-[1-(Phenylmethyl)-4-piperidinyl]-4-[(4-quinolinylmethyl)amino]benzamide], 8.1%; to `CCCCN1CCC(NC(=O)c2ccc(NCc3ccnc4ccccc34)cc2)CC1` [Example 19, N-(1-Butyl-4-piperidinyl)-4-[(4-quinolinylmethyl)amino]benzamide], 32.8%.
